Measurements taken from patent publication US20240173389A1, “Compositions and Methods For Reducing Immune Intolerance” (LAPIX THERAPEUTICS, INC., priority 2021, published 2024).

Test system: FoxP3+/CD4+ T-cells
Assay: Splenocytes cultured 3 days with anti-CD3/anti-CD28 with or without OPLT, percent FoxP3+/CD4+ T-cells (Example 6)
Format: cell-based, C57BL/6 mice
Settings: 72-hour incubation
Description: OPLT was dissolved in sterile PBS at 100 μM, and pH was adjusted to approximately 7.5. Splenocytes from naïve C57BL/6 mice were stained with CFSE, prepared, cultured, and dosed. Cells were seeded at 2×10^5 cells/well.
To evaluate the effects of OPLT on FoxP3+/CD4+ T-cells, splenocytes were cultured for 3 days in presence of anti-CD3/anti-CD28 with and without 1.85 μg/ml (10 μM) OPLT. Cells were harvested at the end of a 72-hour incubation period and percent FoxP3+/CD4+ T-cells was determined by flow cytometry.

N[C@@H](Cc1ccc(OP(=O)(O)O)cc1)C(=O)O [OPLT, O-phospho-L-tyrosine]
increase in FoxP3+/CD4+ T-cells versus untreated cells (10 μM (1.85 μg/ml) OPLT, anti-CD3/anti-CD28): 118% | percent FoxP3+/CD4+ T-cells (10 μM OPLT, untreated 12.7%): 27.7%
